Laboratory results as given in ChEMBL document CHEMBL1147544, “N-alkyl-4-[(8-azabicyclo[3.2.1]-oct-3-ylidene)phenylmethyl]benzamides, micro and delta opioid agonists: a micro address” (Bioorg Med Chem Lett, 2004).

Tests used:
[1] = biological target: Delta-type opioid receptor (Homo sapiens, UniProt P41143); assay: In vitro binding affinity towards opioid receptor delta 1
[2] = biological target: T1, Mu-type opioid receptor (Homo sapiens, UniProt P35372); assay: In vitro binding affinity towards opioid receptor mu 1; design: species or system unidentified
[3] = test system: Mus musculus; assay: Antinociceptive activity by mouse hotplate test (55 degree C, po ); format: functional
[4] = biological target: T1, Mu-type opioid receptor; assay: Percentage stimulation of [35S]GTP-gamma-S, binding at the opioid receptor mu 1 at 10 uM; format: functional

Delta-type opioid receptor, sequence (P41143 whole entry): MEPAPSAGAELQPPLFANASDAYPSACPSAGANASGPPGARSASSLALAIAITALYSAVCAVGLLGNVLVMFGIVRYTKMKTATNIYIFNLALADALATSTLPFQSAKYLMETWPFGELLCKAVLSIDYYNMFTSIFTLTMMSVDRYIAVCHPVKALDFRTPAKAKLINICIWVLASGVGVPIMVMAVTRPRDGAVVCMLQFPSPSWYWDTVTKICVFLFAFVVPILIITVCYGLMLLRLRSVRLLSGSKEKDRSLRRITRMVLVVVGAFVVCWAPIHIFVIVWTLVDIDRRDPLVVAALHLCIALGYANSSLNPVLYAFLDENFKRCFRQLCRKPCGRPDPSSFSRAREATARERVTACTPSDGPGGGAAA
T1 sequence (P35372 whole entry): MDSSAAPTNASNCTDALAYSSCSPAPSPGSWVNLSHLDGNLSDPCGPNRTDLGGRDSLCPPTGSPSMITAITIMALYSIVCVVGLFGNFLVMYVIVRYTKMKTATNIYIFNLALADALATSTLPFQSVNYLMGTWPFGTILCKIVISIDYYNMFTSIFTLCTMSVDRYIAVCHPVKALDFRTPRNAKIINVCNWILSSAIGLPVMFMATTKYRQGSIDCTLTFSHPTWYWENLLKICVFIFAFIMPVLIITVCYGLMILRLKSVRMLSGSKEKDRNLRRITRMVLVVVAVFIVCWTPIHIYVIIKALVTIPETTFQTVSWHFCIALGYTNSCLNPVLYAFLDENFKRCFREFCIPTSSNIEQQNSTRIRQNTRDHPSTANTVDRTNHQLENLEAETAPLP

SMILES | Ki [1] [µM] | Ki [2] [µM] | ED50 [3] [µmol/kg] | Stimulation [4] [%]
O=C(NC1CC1)c1ccc(C(=C2CC3CCC(C2)N3CCc2ccccc2)c2ccccc2)cc1 | 0.02 | 0.00101 |  | 
CCNC(=O)c1ccc(C(=C2CC3CCC(C2)N3Cc2cccs2)c2ccc(O)cc2)cc1 | 0.00025 | 0.00677 |  | 
O=C(Nc1nccs1)c1ccc(C(=C2CC3CCC(C2)N3CCc2ccccc2)c2ccccc2)cc1 | 0.0495 | 0.053 |  | 
CCNC(=O)c1ccc(C(=C2CC3CCC(C2)N3)c2ccc(O)cc2)cc1 | 0.0045 | 0.265 |  | 
C=CCN1[C@@H]2CC[C@H]1C/C(=C(\c1ccccc1)c1ccc(C(=O)NCC)cc1)C2 | 0.00772 | 0.0191 |  | 
CCNC(=O)c1ccc(C(=C2CC3CCC(C2)N3CCc2ccccc2)c2cccc(OC)c2)cc1 | 0.0198 | 0.000654 |  | 
O=C(NC1CCCCC1)c1ccc(C(=C2CC3CCC(C2)N3CCc2ccccc2)c2ccccc2)cc1 | 0.924 | 0.717 |  | 
NC(=O)c1ccc(C(=C2CC3CCC(C2)N3CCc2ccccc2)c2ccccc2)cc1 | 0.0359 | 0.0396 |  | 
CCNC(=O)c1ccc(/C(=C2/C[C@H]3CC[C@@H](C2)N3C)c2ccccc2)cc1 | 0.00639 | 0.0425 |  | 
CCNC(=O)c1ccc(C(=C2CC3CCC(C2)N3CCO)c2ccccc2)cc1 | 0.0262 | 0.076 |  | 
O=C(Nc1ccccc1)c1ccc(C(=C2CC3CCC(C2)N3CCc2ccccc2)c2ccccc2)cc1 | 1.52 | 4.24 |  | 
CCNC(=O)c1ccc(/C(=C2\C[C@H]3CC[C@@H](C2)N3C)c2ccccc2)cc1 | 0.292 | 0.304 |  | 
CCNC(=O)c1ccc(C(=C2CC3CCC(C2)N3c2cccn2C)c2ccccc2)cc1 | 0.0208 | 0.059 |  | 
CCN(CC)C(=O)c1ccc(/C(=C2\C[C@H]3CC[C@@H](C2)N3CCc2ccccc2)c2ccccc2)cc1 |  |  | 25 | 
CCNC(=O)c1ccc(C(=C2CC3CCC(C2)N3Cc2ccccn2)c2ccccc2)cc1 | 0.00086 | 0.017 |  | 
C=CCN1C2CCC1CC(=C(c1ccc(C(=O)NCC)cc1)c1cccc(O)c1)C2 | 0.000384 | 0.00958 |  | 
CNC(=O)c1ccc(C(=C2CC3CCC(C2)N3CCc2ccccc2)c2ccccc2)cc1 | 0.013 | 0.00014 |  | 
CCNC(=O)c1ccc(C(=C2CC3CCC(C2)N3CCCc2ccccc2)c2ccccc2)cc1 | 0.0123 | 0.0048 |  | 
CC(C)(C)NC(=O)c1ccc(C(=C2CC3CCC(C2)N3CCc2ccccc2)c2ccccc2)cc1 | 0.352 | 0.608 |  | 
O=C(NCCF)c1ccc(C(=C2CC3CCC(C2)N3CCc2ccccc2)c2ccccc2)cc1 | 0.032 | 0.00299 |  | 
C=CCN1[C@@H]2CC[C@H]1C/C(=C(/c1ccccc1)c1ccc(C(=O)NCC)cc1)C2 | 0.00224 | 0.0105 |  | 
CCNC(=O)c1ccc(C(=C2CC3CCC(C2)N3Cc2cccs2)c2cccc(O)c2)cc1 | 0.000152 | 0.000664 |  | 
CCNC(=O)c1ccc(/C(=C2\C[C@H]3CC[C@@H](C2)N3CCc2ccccc2)c2ccccc2)cc1 | 0.0467 | 0.00026 | 25 | 490
CCNC(=O)c1ccc(/C(=C2/C[C@H]3CC[C@@H](C2)N3)c2ccccc2)cc1 | 0.00548 | 0.0747 |  | 
CCNC(=O)c1ccc(/C(=C2/C[C@H]3CC[C@@H](C2)N3CCc2ccccc2)c2ccccc2)cc1 | 0.00469 | 0.00716 |  | 
CCCNC(=O)c1ccc(C(=C2CC3CCC(C2)N3CCc2ccccc2)c2ccccc2)cc1 | 0.022 | 0.0016 |  | 
CCNC(=O)c1ccc(C(=C2CC3CCC(C2)N3CC=C(C)C)c2cccc(OC)c2)cc1 | 0.00072 | 0.00204 |  | 
CCNC(=O)c1ccc(C(=C2CC3CCC(C2)N3Cc2cccs2)c2ccc(OC)cc2)cc1 | 0.00132 | 0.0135 |  | 
COCCNC(=O)c1ccc(C(=C2CC3CCC(C2)N3CCc2ccccc2)c2ccccc2)cc1 | 0.103 | 0.163 |  | 

Second part, led by results:

Ki [1] [µM] | Ki [2] [µM] | SMILES | ED50 [3] [µmol/kg] | Stimulation [4] [%]
0.00567 | 0.122 | CCNC(=O)c1ccc(C(=C2CC3CCC(C2)N3Cc2ccccc2Cl)c2ccc(OC)cc2)cc1 |  | 
0.0493 | 0.0217 | CCCCNC(=O)c1ccc(C(=C2CC3CCC(C2)N3CCc2ccccc2)c2ccccc2)cc1 |  | 
0.00209 | 0.015 | CCNC(=O)c1ccc(C(=C2CC3CCC(C2)N3Cc2ccccc2Cl)c2cccc(O)c2)cc1 |  | 
 | 0.000222 | CCNC(=O)c1ccc(C(=C2CC3CCC(C2)N3CCc2ccccc2)c2cccc(O)c2)cc1 |  | 
0.0634 | 0.093 | CCNC(=O)c1ccc(C(=C2CC3CCC(C2)N3CCOc2ccccc2)c2ccccc2)cc1 |  | 
0.0159 | 0.061 | CCNC(=O)c1ccc(C(=C2CC3CCC(C2)N3Cc2[nH]cnc2C)c2ccccc2)cc1 |  | 
0.0113 | 0.0061 | CCNC(=O)c1ccc(C(=C2CC3CCC(C2)N3CCc2ccccc2)c2ccc(OC)cc2)cc1 |  | 
0.00051 | 0.00379 | CCNC(=O)c1ccc(C(=C2CC3CCC(C2)N3Cc2cccs2)c2cccc(OC)c2)cc1 |  | 
0.0237 | 0.084 | CCNC(=O)c1ccc(C(=C2CC3CCC(C2)N3CCc2c[nH]c3ccccc23)c2ccccc2)cc1 |  | 
0.00145 | 0.0138 | C=CCN1C2CCC1CC(=C(c1ccc(C(=O)NCC)cc1)c1cccc(OC)c1)C2 |  | 
0.00202 | 0.00252 | CCNC(=O)c1ccc(C(=C2CC3CCC(C2)N3CC=C(C)C)c2cccc(O)c2)cc1 |  | 
0.00093 | 0.00872 | CCNC(=O)c1ccc(C(=C2CC3CCC(C2)N3Cc2ccccc2Cl)c2ccc(O)cc2)cc1 |  | 
0.0078 | 0.0217 | CCNC(=O)c1ccc(C(=C2CC3CCC(C2)N3CCc2ccccc2)c2ccc(O)cc2)cc1 |  | 
0.00388 | 0.101 | CCNC(=O)c1ccc(C(=C2CC3CCC(C2)N3Cc2c[nH]cn2)c2ccccc2)cc1 |  | 
0.00666 | 0.0577 | CCNC(=O)c1ccc(C(=C2CC3CCC(C2)N3Cc2ccccc2Cl)c2cccc(OC)c2)cc1 |  | 
0.0132 | 0.096 | CCNC(=O)c1ccc(C(=C2CC3CCC(C2)N3)c2cccc(OC)c2)cc1 |  | 
